Experimental data published in ChEMBL document CHEMBL1137215, “A 4'-C-ethynyl-2',3'-dideoxynucleoside analogue highlights the role of the 3'-OH in anti-HIV active 4'-C-ethynyl-2'-deoxy nucleosides” (J Med Chem, 2004).

What was measured:
MT2 [1] = assay: Inhibitory concentration against HIV LAI in MT-2 cells when tested at a range of 0.001-10 uM concentration; Inactive; format: functional, cell-based, Homo sapiens
MT4 [2] = assay: Inhibitory concentration against HIV LAI in MT-4 cells when tested at a range of 0.001-10 uM concentration; Inactive; format: functional, cell-based, Homo sapiens
MT4 [3] = assay: Inhibitory concentration of compound against HIV LAI in MT-4 cells when tested at a range of 0.001-10 uM concentration; format: functional, cell-based; conditions: Homo sapiens
MT2 [4] = assay: Inhibitory concentration of compound against HIV LAI in MT-2 cells when tested at a range of 0.001-10 uM concentration; format: functional, cell-based; conditions: Homo sapiens

IC50 (MT2 [1])	IC50 (MT2 [4])	SMILES	IC50 (MT4 [2])	IC50 (MT4 [3])
Not Active		C#C[C@@]1(CO)CCC(n2ccc(N)nc2=O)O1 (some centres undefined)	Not Active	
	0.01 µM	CC(C)c1nc(CN(C)C(=O)N[C@H](C(=O)N[C@@H](Cc2ccccc2)C[C@H](O)[C@H](Cc2ccccc2)NC(=O)OCc2cncs2)C(C)C)cs1 [RITONAVIR]		0.01 µM
